Patent publication US20080032992A1, “New Pyridine Analogues V” (ASTRAZENECA AB, priority 2006, published 2008)

Target: T1, P2Y12 receptor (Homo sapiens, UniProt Q9H244)
T1 construct: expressed in transfected cells; host or cells: CHO cells (membranes)
Experiment: Functional inhibition of 2-Me-S-ADP induced P2Y12 signalling (35S-GTPγS binding, membranes from P2Y12 transfected CHO-cells)
Format: biochemical
Conditions: EC80 concentration of agonist 2-methyl-thio-adenosine diphosphate, 30° C. for 45 min
Experimental: Functional inhibition of the P2Y12 receptor can be measured by in vitro assays using cell membranes from P2Y12 transfected CHO-cells, the methodology is indicated below.
Functional inhibition of 2-Me-S-ADP induced P2Y12 signalling: 5 μg of membranes were diluted in 200 μl of 200 mM NaCl, 1 mM MgCl2, 50 mM HEPES (pH 7.4), 0.01% BSA, 30 μg/ml saponin and 10 μM GDP. To this was added an EC80 concentration of agonist (2-methyl-thio-adenosine diphosphate), the required concentration of test compound and 0.1 μCi ^35S-GTPγS. The reaction was allowed to proceed at 30° C. for 45 min. Samples were then transferred on to GF/B filters using a cell harvester and washed with wash buffer (50 mM Tris (pH 7.4), 5 mM MgCl2, 50 mM NaCl). Filters were then covered with scintillate and counted for the amount of ^35S-GTPγS retained by the filter. Maximum activity was that determined in the presence of the agonist and minimum activity in the absence of the agonist following subtraction of the value determined for non-specific activity. The effect of compounds at various concentrations was plotted according to the equation y=A+((B−A)/(1+((C/x)ˆD))) and IC50 estimated where
A is the bottom plateau of the curve i.e. the final minimum y value
B is the top of the plateau of the curve i.e. the final maximum y value
C is the x value at the middle of the curve. This represents the log EC50 value when A+B=100 […]

T1 sequence (Q9H244 whole entry): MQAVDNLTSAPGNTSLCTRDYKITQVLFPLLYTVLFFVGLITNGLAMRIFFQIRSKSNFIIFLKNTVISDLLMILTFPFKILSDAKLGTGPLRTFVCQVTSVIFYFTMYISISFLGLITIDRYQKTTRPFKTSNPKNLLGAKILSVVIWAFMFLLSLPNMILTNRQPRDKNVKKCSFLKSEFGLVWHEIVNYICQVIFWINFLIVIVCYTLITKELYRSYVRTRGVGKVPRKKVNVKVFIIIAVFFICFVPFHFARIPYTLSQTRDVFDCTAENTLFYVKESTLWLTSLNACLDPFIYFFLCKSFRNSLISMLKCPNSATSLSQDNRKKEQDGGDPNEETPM

IC50 | Structure (SMILES)
690 nM | CCOC(=O)c1cc(C#N)c(N2CCN(Cc3cn(-c4ccccc4)nn3)CC2)nc1C [Example 2, Ethyl 5-cyano-2-methyl-6-{4-[(1-phenyl-1H-1,2,3-triazol-4-yl)methyl]piperazin-1-yl}nicotinate]
330 nM | CCOC(=O)c1cc(C#N)c(N2CCC(c3nnc(-c4ccccc4)[nH]3)CC2)nc1C [Example 3, Ethyl 5-cyano-2-methyl-6-[4-(5-phenyl-4-h-1,2,4-triazol-3-yl)piperidin-1-yl]nicotinate]
